The values that follow come from article PMC6691401 (Journal of Medicinal Chemistry, 2019).

Read-outs that look alike come from different tables or passages of the source.

One may read the ΔTm as the shift of the melting midpoint relative to a reference. By Kd is commonly meant the equilibrium constant for the complex coming apart. One may read the stoichiometry N as the number of molecules, sites or subunits per partner or assembly.

Series [1] deals with T1, Mab TrmD (Mycobacteroides abscessus, UniProt B1MDI3). Briefly: Differential scanning fluorimetry (DSF) thermal shift. Type of series: binding. Conditions: 5 mM ligand. In general terms: In DSF a fluorescence change marks the thermal transition of the protein.
Series [2] has as its target T1, Mab TrmD. Also on record: method as in PMID 32602532. Conditions: cited from earlier work; for ΔTm: Table 3, 5 mM ligand and 10 μM Mab TrmD; for thermal shift (ΔTm): 5 mM ligand.
Series [3] has as its target T1, Mab TrmD. The note with it: ligand efficiency, previously reported, cited from earlier work.
Series [4] concerns the target T1, Mab TrmD. Briefly: Native mass spectrometry of ligand binding. Conditions: 20 μM Mab TrmD, 100 μM ligand, 5% DMSO. The procedure:
Native nanoelectrospray ionization mass spectrometry spectra were recorded on a Synapt HDMS mass spectrometer (Waters, Manchester, UK) modified for studying high masses. Mab TrmD was exchanged into 200 mM ammonium acetate (pH 7.0) solution using Micro Bio-Spin 6 chromatography columns (Bio-Rad, UK). Protein samples were equilibrated at room temperature in the absence or presence of the indicated concentrations of ligands for at least 15 min before analysis. Protein solution (2.5 μL) was injected into a gold-coated borosilicate emitter (Thermo Scientific, UK) for sampling. Typical conditions were capillary voltage 1.5 kV, cone voltage 50 V, trap collision voltage 20 V, transfer collision voltage 20 V, source temperature 20 °C, backing pressure 3–4 mbar, trap pressure 3–4 × 10^–2 mbar, IM (N2) pressure 5–6 × 10^–1 mbar and TOF pressure 7–8 × 10^–7 mbar. All mass spectra were calibrated externally with caesium iodide (10 mg/mL). Data acquisition and processing were performed using MassLynx 4.1 (Waters).

The target of series [5] is T1, Mab TrmD. Description: Isothermal titration calorimetry (ITC). Type of series: binding. The note with it: for GE (R^1): group efficiency of R^1; for LE: ligand efficiency; for GE: group efficiency of the added group; for GE (CH2R^1): group efficiency of CH2R^1.
Series [6] deals with the molecule itself. Briefly: native MS; nanoelectrospray, Mab TrmD exchanged into 200 mM ammonium acetate pH 7.0, room temperature, protein alone (dimer also seen with 5% DMSO and with ligands).

As for `CCNC(=O)c1cn[nH]c1` [Compound 2, N-Ethyl-1H-pyrazole-4-carboxamide], on Mab TrmD [1], the ΔTm was less than 0.5 °C.

Turning to `COc1ccc(-c2cc(N)[nH]n2)cc1` [Compound 16, 5-(4-methoxyphenyl)-1H-pyrazol-3-amine], the ΔTm result at Mab TrmD [2] was “+3.0 °C”. The LE on Mab TrmD [3] (Table 3) and at Mab TrmD [3] was 0.37 kcal mol^–1 per heavy atom throughout.

As to `Nc1cc(-c2ccccc2)n[nH]1` [Compound 17, 5-phenyl-1H-pyrazol-3-amine], on Mab TrmD [2], the “thermal shift (ΔTm)” value was 1.4–1.5 °C and the ΔTm entry was “+1.5 °C”.

Take `Cc1ccc(-c2cc(N)[nH]n2)cc1` [Compound 18, 5-(p-tolyl)-1H-pyrazol-3-amine]: on Mab TrmD [2], the “thermal shift (ΔTm)” value is 1.4–1.5 °C and the ΔTm entry was “+1.4 °C”.

Regarding `COc1cccc(-c2cc(N)n[nH]2)c1` [Compound 19, 5-(3-Methoxyphenyl)-1H-pyrazol-3-amine], the “thermal shift (ΔTm)” value on Mab TrmD [1] is on record as “negative thermal shift”.

With `OB(O)c1ccc2cc[nH]c2c1` [Compound 20, (1H-indol-6-yl)boronic acid], the ΔTm result on Mab TrmD [2] is “+4.0 °C”. The LE on Mab TrmD [3] (Table 3) and at Mab TrmD [3] was 0.41 kcal mol^–1 per heavy atom in each case.

In the case of `O=C(O)c1ccc2cc[nH]c2c1` [Compound 21, 1H-indole-6-carboxylic acid], on Mab TrmD [2], the “thermal shift (ΔTm)” value is recorded as “no ΔTm observed” and the ΔTm result is “–0.6 °C”.

As for `Nc1cc(-c2ccc3cc[nH]c3c2)[nH]n1` [Compound 23, 5-(1H-Indol-6-yl)-1H-pyrazol-3-amine], the LE on Mab TrmD [3] (Table 3) and on Mab TrmD [3] was 0.36 kcal mol^–1 per heavy atom in each case.

As to `Nc1cc(-c2ccc3ccn(Cc4ccccc4)c3c2)[nH]n1` [Compound 24c, 5-(1-Benzyl-1H-indol-6-yl)-1H-pyrazol-3-amine], the “binding to Mab TrmD dimer observed by native MS” value at Mab TrmD [4] was “entirely doubly bound”. Besides, on Mab TrmD [5] (Table 4), the “GE (R^1)” value is listed as 0.15 kcal mol^–1 per heavy atom and the LE was 0.29 kcal mol^–1 per heavy atom. Also, on Mab TrmD [5], the GE is recorded as 0.15 kcal mol^–1 per heavy atom and the LE is listed as 0.29 kcal mol^–1 per heavy atom.

As for `Nc1cc(-c2ccc3ccn(Cc4ccccn4)c3c2)[nH]n1` [Compound 24f, 5-(1-(Pyridin-2-ylmethyl)-1H-indol-6-yl)-1H-pyrazol-3-amine], the “GE (R^1)” value on Mab TrmD [5] (Table 4) was 0.18 kcal mol^–1 per heavy atom. Further, the LE on Mab TrmD [3] (Table 4) and at Mab TrmD [3] was 0.30 kcal mol^–1 per heavy atom in each case.

For the molecule `N#Cc1c(N)n[nH]c1-c1ccc2ccn(Cc3ccccn3)c2c1` [Compound 26f, 3-Amino-5-(1-(pyridin-2-ylmethyl)-1H-indol-6-yl)-1H-pyrazole-4-carbonitrile], the “GE (R^1)” value at Mab TrmD [5] (Table 4) is recorded as 0.20 kcal mol^–1 per heavy atom. In addition, the GE at Mab TrmD [5] was 0.95 kcal mol^–1 per heavy atom. For the same molecule, the LE on Mab TrmD [3] (Table 4) and at Mab TrmD [3] was 0.36 kcal mol^–1 per heavy atom throughout.

For the molecule `N#Cc1c(N)n[nH]c1-c1ccc2ccn(Cc3ccc(CN4CCCC4)cn3)c2c1` [Compound 28, 3-Amino-5-(1-((5-(pyrrolidin-1-ylmethyl)pyridin-2-yl)methyl)-1H-indol-6-yl)-1H-pyrazole-4-carbonitrile], on Mab TrmD [5] (Table 6), the “GE (CH2R^1)” value is 0.17 kcal mol^–1 per heavy atom. In addition, the LE at Mab TrmD [3] (Table 6) and at Mab TrmD [3] was 0.32 kcal mol^–1 per heavy atom throughout.

With `N#Cc1c(N)n[nH]c1-c1ccc2ccn(Cc3ccc(CN4CCCC4)cc3)c2c1` [Compound 29a, 3-Amino-5-(1-(4-(pyrrolidin-1-ylmethyl)benzyl)-1H-indol-6-yl)-1H-pyrazole-4-carbonitrile], the “binding to Mab TrmD dimer observed by native MS” value on Mab TrmD [4] is “low gas-phase stabilities”. Besides, the LE at Mab TrmD [3] (Table 6) and at Mab TrmD [3] was 0.34 kcal mol^–1 per heavy atom each time.

`N#Cc1c(N)n[nH]c1-c1ccc2ccn(Cc3ccc(CN4CCOCC4)cc3)c2c1` [Compound 29c, 3-Amino-5-(1-(4-(morpholinomethyl)benzyl)-1H-indol-6-yl)-1H-pyrazole-4-carbonitrile]: on Mab TrmD [5] (Table 6), the dissociation constant (Kd) worked out at 190 ± 23 nM. Moreover, the LE on Mab TrmD [5] (Table 6) and at Mab TrmD [5] was 0.30 kcal mol^–1 per heavy atom each time.

As to `CN1CCN(Cc2ccc(Cn3ccc4ccc(-c5[nH]nc(N)c5C#N)cc43)cc2)CC1` [Compound 29d, 3-Amino-5-(1-(4-((4-methylpiperazin-1-yl)methyl)benzyl)-1H-indol-6-yl)-1H-pyrazole-4-carbonitrile], the LE on Mab TrmD [3] (Table 6) and at Mab TrmD [3] was 0.30 kcal mol^–1 per heavy atom throughout.

At Mab TrmD [5] (Table 6), `CC(C)N1CCN(Cc2ccc(Cn3ccc4ccc(-c5[nH]nc(N)c5C#N)cc43)cc2)CC1` [Compound 29e, 3-Amino-5-(1-(4-((4-isopropylpiperazin-1-yl)methyl)benzyl)-1H-indol-6-yl)-1H-pyrazole-4-carbonitrile] registered a Kd of 100 ± 24 nM. Besides, the LE at Mab TrmD [5] (Table 6) and at Mab TrmD [5] was 0.28 kcal mol^–1 per heavy atom throughout.

Take `Cc1c(N)n[nH]c1-c1ccc2ccn(Cc3ccc(CN4CCCC4)cc3)c2c1` [Compound 30a, 4-Methyl-5-(1-(4-(pyrrolidin-1-ylmethyl)benzyl)-1H-indol-6-yl)-1H-pyrazol-3-amine]: at Mab TrmD [5] (Table 6), the Kd worked out at 2000 ± 310 nM and the LE is 0.27 kcal mol^–1 per heavy atom.

For `Nc1cc(-c2ccc3ccn(Cc4ccc(CN5CCCC5)cc4)c3c2)[nH]n1` [Compound 31a, 5-(1-(4-(Pyrrolidin-1-ylmethyl)benzyl)-1H-indol-6-yl)-1H-pyrazol-3-amine], the “GE (CH2R^1)” value on Mab TrmD [5] (Table 6) is listed as 0.36 kcal mol^–1 per heavy atom. Further, the LE on Mab TrmD [3] (Table 6) was 0.31 kcal mol^–1 per heavy atom.

On to `Nc1cc(-c2ccc3ccn(Cc4ccc(CN5CCCCC5)cc4)c3c2)[nH]n1` [Compound 31b, 5-(1-(4-(Piperidin-1-ylmethyl)benzyl)-1H-indol-6-yl)-1H-pyrazol-3-amine], for which, at Mab TrmD [5] (Table 6), the Kd was determined as 710 ± 90 nM, the “GE (CH2R^1)” value is 0.28 kcal mol^–1 per heavy atom and the LE is given as 0.29 kcal mol^–1 per heavy atom.

B1: Mycobacterium abscessus tRNA (m1G37) methyltransferase (TrmD) (enzyme, UniProt B1MDI3 1-242, looked up)
chain: MKIDVVTIFPEYLQPVRQSLPGKAIDAGLVDVAVHDLRRWTHDVHKSVDDSPYGGGPGMVMKPTVWGDALDEICTSETLLVVPTPAGYPFTQETAWQWSTEDHLVIACGRYEGIDQRVADDAATRMRVREVSIGDYVLNGGEAAALVIIEAVLRLVPGVLGNALSAQEDSHSEGMASLLEGPSYTRPPSWRGMDVPPVLLSGDHAKIAAWRAEQSRQRTIERRPDLLGFDSPTGEHGGDGLS
In the case of B1, the “stoichiometry N” value in series [6] worked out at 2.
